Assay results from patent US20250009746A1, “COMBINATION THERAPY FOR TREATING ABNORMAL CELL GROWTH” (Verastem, Inc., priority 2021, published 2025).
“Also recorded” adds a separate entry of the source.

What was measured:
Format in all cases: cell-based
[1] = test system: BRAF V600E human melanoma cell lines; assay: 3D proliferation assay (CellTiter-Glo) with synergy analysis, BRAF V600E melanoma panel
Procedure: (§1) As examples, BRAF V600E human melanoma, BRAF V600E human colorectal carcinoma (CRC), and NRAS mutant human melanoma cell lines were grown in 3D conditions. Briefly, 96-well plates were coated with 50 μL of Matrigel (100%) and incubated at 37° C. and 5% CO2 for 30 min in order for the Matrigel to solidify. Cells were seeded in 100 μL of 2% Matrigel containing medium. After an overnight incubation (17-22 hours), cells were treated with VS-6766+/−BRAF V600 inhibitor (e.g., vemurafenib, dabrafenib, encorafenib), VS-6766+/−pan-RAF inhibitor (e.g., belvarafenib, naporafenib, lifirafenib, tovorafenib), or MEK inhibitor (e.g., cobimetinib, trametinib, binimetinib)+/−BRAF (e.g., vemurafenib, dabrafenib, encorafenib) inhibitor for 7 days. VS-6766 and MEK inhibitors were used at 1:5 dilutions starting at 5 μM. BRAF V600 inhibitors and pan-RAF inhibitors were used at 1:3 dilutions starting at 5 μM. Cell viability was measured using the cell viability CellTiter-Glo assay.
(§2) Raw data and metadata files were processed with a custom R-script for single agent and combination activity. Bliss, Loewe, Highest Single Agent (HSA) and ZIP synergy analysis were performed to generate a composite synergy score. Summary graphics and reports were saved for visualization and further analysis.

[2] = test system: BRAF V600E human colorectal carcinoma (CRC) cell lines; assay: 3D proliferation assay (CellTiter-Glo) with synergy analysis, BRAF V600E CRC panel
Procedure: as §1, §2

[3] = test system: NRAS mutant human melanoma cell lines; assay: 3D proliferation assay (CellTiter-Glo) with synergy analysis, NRAS mutant melanoma panel; conditions: VS-6766 + pan-RAF inhibitor (e.g., belvarafenib, naporafenib, lifirafenib, tovorafenib); 7 days; 3 NRAS mutant melanoma cell lines; Bliss, Loewe, HSA, ZIP (FIGS. 7, 8)
Procedure: as §1, §2

CNS(=O)(=O)Nc1nccc(Cc2c(C)c3ccc(Cc4ncccn4)cc3oc2=O)c1F [VS-6766]
synergy of VS-6766+BRAFi compared with synergy of MEKi+BRAFi ([1]; BRAF V600E melanoma cell lines, composite synergy score (FIG. 1)): better | synergy of VS-6766+vemurafenib compared with synergy of cobimetinib+vemurafenib ([1]; BRAF V600E melanoma cell lines, dose-response matrices, each agent starting at 5 μM, Bliss synergy shown (FIG. 2)): better | synergy of VS-6766+dabrafenib compared with synergy of trametinib+dabrafenib ([1]; BRAF V600E melanoma cell lines, dose-response matrices, each agent starting at 5 μM, Bliss synergy shown (FIG. 3)): better | synergy with BRAF V600 inhibitors in reducing cell viability ([1]; VS-6766 + BRAF V600 inhibitor (e.g., vemurafenib, dabrafenib, encorafenib), 7 days, 5 BRAF V600E melanoma cell lines, Bliss, Loewe, HSA, ZIP composite synergy score): synergistic | synergy of VS-6766+BRAFi compared with synergy of MEKi+BRAFi ([2]; BRAF V600E colorectal carcinoma cell lines, composite synergy score (FIG. 4)): better | synergy of VS-6766+vemurafenib compared with synergy of cobimetinib+vemurafenib ([2]; BRAF V600E colorectal carcinoma cell lines, dose-response matrices, each agent starting at 5 μM, Bliss synergy shown (FIG. 5)): better | synergy of VS-6766+dabrafenib compared with synergy of trametinib+dabrafenib ([2]; BRAF V600E colorectal carcinoma cell lines, dose-response matrices, each agent starting at 5 μM, Bliss synergy shown (FIG. 6)): better | synergy with BRAF V600 inhibitors in reducing cell viability ([2]; VS-6766 + BRAF V600 inhibitor (e.g., vemurafenib, dabrafenib, encorafenib), 7 days, 3 BRAF V600E CRC cell lines, Bliss, Loewe, HSA, ZIP composite synergy score): synergistic | synergy with pan-RAF inhibitors in reducing cell viability [3]: strong synergy; also recorded: synergistic
